Experimental data taken from ChEMBL document CHEMBL1158298, “Syringin 4-O-beta-glucoside, a new phenylpropanoid glycoside, and costunolide, a nitric oxide synthase inhibitor, from the stem bark of Magnolia sieboldii” (J Nat Prod, 1996).

Columns and labels:
Format in all cases: cell-based
J774.1 [1] = test: Inhibition of nitric oxides synthase in mouse J774.1 cells assessed as inhibition of LPS-induced NO release at 100 ug/mL after 48 hrs by Griess assay relative to control
J774.1 [2] = test: Inhibition of nitric oxides synthase in mouse J774.1 cells assessed as inhibition of LPS-induced NO release at 1 ug/mL after 48 hrs by Griess assay relative to control
[3] = Cytotoxicity against mouse J774.1 cells assessed as cell viability after 48 hrs by MTT assay; conditions: read-out: Activity

| SMILES | inhibition (J774.1 [1]) [%] | inhibition (J774.1 [2]) [%] | viability at 48 h [3] [%] |
| --- | --- | --- | --- |
| COc1cc(/C=C/CO)cc(OC)c1O[C@@H]1O[C@H](CO)[C@@H](O)[C@H](O)[C@H]1O | 12.3 |  |  |
| COc1cc(/C=C/CO)cc(OC)c1O[C@@H]1O[C@H](CO)[C@@H](O[C@@H]2O[C@H](CO)[C@@H](O)[C@H](O)[C@H]2O)[C@H](O)[C@H]1O | 22.3 |  |  |
| C[C@H]1O[C@H](O[C@@H]2[C@@H](O)[C@H](OCCc3ccc(O)c(O)c3)O[C@H](CO[C@H]3O[C@@H](CO)[C@H](O)[C@@H](O)[C@@H]3O)[C@H]2OC(=O)/C=C/c2ccc(O)c(O)c2)[C@@H](O)[C@@H](O)[C@@H]1O | 10.4 |  |  |
| C=C1C(=O)O[C@@H]2/C=C(\C)CC/C=C(\C)CC[C@@H]12 [COSTUNOLIDE] | 94.6 | 50.3 | 92 |
